Test results published in patent publication US20220008359A1, “COMBINATION ANTI-CANCER PRODUCTS AND METHODS” (priority 2020, published 2022).
Marks after values point to notes of the source that are not given here.

Tested on: MCF7 cells
Assay: Immuno-staining of protein expression and protein phosphorylation, MCF7 cells
Type: cell-based
Parameters: ATM level / P-AMPKa level / P-317 (ULK1) level / ATG5 level / HDAC8 level / BIM level: scale not given here
Description: ZR75-1 and MCF7 cells were treated with vehicle control, GZ17-6.02, Palbociclib or the drugs combined for 3 hours and for 6 hours. Cells were fixed in place and immuno-staining performed with in house validated antibodies to detect protein expression and protein phosphorylation.

## CC(=O)c1c(C)c2cnc(Nc3ccc(N4CCNCC4)cn3)nc2n(C2CCCC2)c1=O [PALBO, Palbociclib]
MCF7, 3 h
  AKT level: 100
  AMPKa level: 102
  ATG5 level: 107
  ATG13 level: 100
  ATM level: 100
  BAK level: 95
  BAX level: 103
  BCL-XL level: 99
  BIM level: 109
  Beclin1 level: 113#
  CD95 level: 101
  CHOP level: 112
  Cyclin D level: 104
  Cyclin E level: 104
  ER level: 99
  ERBB1 level: 99
  ERBB2 level: 100
  ERBB3 level: 101
  ERK1/2 level: 100
  ERK2 level: 100
  ERRB4 level: 99
  FAS-L level: 108
  GRP78 level: 114#
  HDAC1 level: 100
  HDAC2 level: 94
  HDAC3 level: 97
  HDAC4 level: 99
  HDAC5 level: 99
  HDAC6 level: 100
  HDAC7 level: 100
  HDAC8 level: 100
  HDAC9 level: 99
  HDAC10 level: 99
  HDAC11 level: 100
  IDO1 level: 97
  JAK2 level: 99
  JNK1/2 level: 100
  LATS1/2 level: 100
  MCL1 level: 95
  MHCA level: 102
  NEDD4 level: 96
  NFkB level: 101
  ODC level: 103
  P-89 (TAZ) level: 105
  P-109 (YAP) level: 106
  P-127 (YAP) level: 102
  P-317 (ULK1) level: 109
  P-397 (YAP) level: 96
  P-757 (ULK1) level: 98
  P-909 (LATS1/2) level: 99
  P-1079 (LATS1/2) level: 109
  P-AMPKa level: 112
  P-ATG13 level: 116#
  P-ATM level: 105
  P-ERBB1 level: 100
  P-ERBB2 level: 99
  P-ERBB3 level: 111
  P-ERBB4 level: 102
  P-ERK level: 101
  P-JAK2 level: 101
  P-JNK level: 89
  P-KIT level: 100
  P-MET level: 100
  P-NFkB level: 100
  P-PDGFRb level: 103
  P-PERK level: 109
  P-S2448 (mTOR) level: 98
  P-S2481 (mTOR) level: 98
  P-T308 (AKT) level: 96
  P-Y694 (STAT5) level: 98
  P-Y705 (STAT3) level: 98
  P-eIF2a level: 107
  P-p38 level: 97
  P-p70 T389 level: 105
  PD-L1 level: 100
  PD-L2 level: 100
  PDGFRb level: 100
  PERK level: 101
  PP1 level: 98
  PTEN level: 103
  STAT3 level: 100
  STAT5 level: 100
  TAZ level: 101
  ULK1 level: 100
  Y416 (c-SRC) level: 100
  Y527 (c-SRC) level: 98
  YAP level: 99
  c-KIT level: 100
  c-MET level: 91
  c-SRC level: 100
  eIF2a level: 99
  mTOR level: 100
  p38 level: 101
  p70 S6K level: 99
MCF7, 6 h
  AKT level: 100
  AMPKa level: 100
  ATG5 level: 114#
  ATG13 level: 101
  ATM level: 99
  BAK level: 109
  BAX level: 95
  BCL-XL level: 94
  BIM level: 113#
  Beclin1 level: 117#
  CD95 level: 100
  CHOP level: 116#
  Cyclin D level: 108
  Cyclin E level: 104
  ER level: 91
  ERBB1 level: 101
  ERBB2 level: 100
  ERBB3 level: 100
  ERK1/2 level: 100
  ERK2 level: 100
  ERRB4 level: 100
  FAS-L level: 111
  GRP78 level: 115#
  HDAC1 level: 99
  HDAC2 level: 95
  HDAC3 level: 101
  HDAC4 level: 102
  HDAC5 level: 98
  HDAC6 level: 101
  HDAC7 level: 101
  HDAC8 level: 101
  HDAC9 level: 100
  HDAC10 level: 99
  HDAC11 level: 99
  IDO1 level: 96
  JAK2 level: 100
  JNK1/2 level: 100
  LATS1/2 level: 100
  MCL1 level: 91
  MHCA level: 103
  NEDD4 level: 97
  NFkB level: 100
  ODC level: 101
  P-89 (TAZ) level: 103
  P-109 (YAP) level: 104
  P-127 (YAP) level: 104
  P-317 (ULK1) level: 113#
  P-397 (YAP) level: 99
  P-757 (ULK1) level: 98
  P-909 (LATS1/2) level: 99
  P-1079 (LATS1/2) level: 112
  P-AMPKa level: 117#
  P-ATG13 level: 118#
  P-ATM level: 109
  P-ERBB1 level: 100
  P-ERBB2 level: 100
  P-ERBB3 level: 114#
  P-ERBB4 level: 106
  P-ERK level: 99
  P-JAK2 level: 100
  P-JNK level: 90
  P-KIT level: 100
  P-MET level: 96
  P-NFkB level: 99
  P-PDGFRb level: 105
  P-PERK level: 103
  P-S2448 (mTOR) level: 98
  P-S2481 (mTOR) level: 96
  P-T308 (AKT) level: 107
  P-Y694 (STAT5) level: 98
  P-Y705 (STAT3) level: 98
  P-eIF2a level: 110
  P-p38 level: 100
  P-p70 T389 level: 110
  PD-L1 level: 98
  PD-L2 level: 98
  PDGFRb level: 99
  PERK level: 101
  PP1 level: 99
  PTEN level: 103
  STAT3 level: 100
  STAT5 level: 100
  TAZ level: 100
  ULK1 level: 100
  Y416 (c-SRC) level: 101
  Y527 (c-SRC) level: 103
  YAP level: 99
  c-KIT level: 102
  c-MET level: 99
  c-SRC level: 101
  eIF2a level: 100
  mTOR level: 100
  p38 level: 103
  p70 S6K level: 100
MCF7, 6 h, listed as Palbo
  P-ERBB3 level: 114
